Assay results taken from patent US10568945B2, “Compositions and methods for inducing liver regeneration by administering hepatocyte-derived exosomes” (University of Cincinnati, priority 2014, dated 2020).
Entries after “also recorded” stand apart in the source; their conditions may differ.

Experiments:
[1] = tested on: sphingosine-1-phosphate (S1P) in hepatocytes; assay: Measurement of S1P in hepatocytes by ELISA; format: cell-based, mouse; settings: pre-incubation of hepatocytes with SPHK I2 (20 μM)
[2] = tested on: primary mouse hepatocytes; assay: Hepatocyte proliferation (BrdU incorporation)
Method: (A) Primary mouse hepatocytes from wild-type mice were treated with increasing doses of exosomes derived from wild-type or CXCR2-deficient hepatocytes for 24 hrs. Cell proliferation was determined via BrdU incorporation. Data are mean±SEM with n=8-16 per group. *P<0.05 compared to control mice. **P<0.05 compared to untreated samples.
Hepatocytes were treated with hepatocyte-derived exosomes for 24 hrs. DNA incorporation of 5-bromo-20-deoxyuridine (BrdU) was employed to evaluate hepatocyte proliferation by exosomes, and data were normalized by the amount of viable cells and expressed as a ratio compared with medium alone. A commercial BrdU cell proliferation ELISA system (Abcam, Cambridge, UK) was used for this assay.

[3] = tested on: isolated wildtype and CXCR2-deficient hepatocytes; assay: Release of exosomes from isolated hepatocytes (CD81 antigen ELISA); format: cell-based, mouse; settings: GW4869 for 48 hrs
Method: FIG. 2. CXCR2 regulates the neutral sphingomyelinase/ceramide system to release exosomes. (A) CXCR2-deficient cells show higher concentrations of ceramide than wildtype hepatocytes as determined by staining of isolated hepatocytes with Cy3-coupled anti-ceramide antibodies (A, upper panel). The intensity of the fluorescence staining in panel a reflects ceramide levels. […] Data are representative for 4 similar stainings. (B) Ceramide activity in hepatocytes was determined by a ceramide kinase assay. Data are mean±SEM with n=4 per group. *P<0.05 compared to wild-type mice. (C) Neutral sphingomyelinase activity is increased in CXCR2-deficient hepatocytes compared to wild-type mice. Data are mean±SEM with n=4 per group. *P<0.05 compared to wild-type mice. […] Cells were treated with GW4869 for 48 hrs in Williams media supplemented with exosome-depleted FBS and the number of exosomes was determined using differential centrifugation and detection of exosomes using a CD81 antigen ELISA kit. Data are mean±SEM with n=4 per group, *P<0.05 compared to wild-type mice. […]
Exosomes were purified from serum and the culture media. […] The size of exosomes in the serum and the culture medium was determined using a Zetasizer Nano (Malvern Instruments, Malvern, UK) and the number of exosomes was assessed by the CD81-antigen ELISA kit (System Biosciences).

With `Oc1ccc(Nc2nc(-c3ccc(Cl)cc3)cs2)cc1` [SPHK I2] the “exosome-induced production of S1P in hepatocytes” value [1] was “prevented; also recorded: completely blocked” and the exosome-induced hepatocyte proliferation ([2]; hepatocytes treated with 5-20 μM SPHK I2) was “completely abrogated”.
`Nc1ncnc2c1ncn2[C@@H]1O[C@H](COC(=O)c2ccc(S(=O)(=O)F)cc2)[C@@H](O)[C@H]1O` [FSBA] was tested, and the exosome-induced hepatocyte proliferation ([2]; exosomes treated with FSBA, washed, then added to primary hepatocytes) was “completely blocked”.
With `O=C(/C=C/c1ccc(/C=C/C(=O)Nc2ccc(C3=NCCN3)cc2)cc1)Nc1ccc(C2=NCCN2)cc1` [GW4869] the “concentration/release of exosomes from hepatocytes” value [3] was “dose dependently blocked; also recorded: dose-dependently reduced”.
